What was measured:
[1] = biological target: T1, rM3Ds (Rattus norvegicus, UniProt P08483, A177S/A238G/A489L/DEL261-437/DEL441-478/E258S/I253V/I483M/INS256[…]/K178L/K182A/K255R/K484R/K486H/L173F/L482A/M480V/R171S/R176Q/R179M/S481M/T174R/T181R/T257A/Y148C); assay: Rotation behavior and nigral c-Fos in mice after unilateral nigral AAV8R12-G88P7-rM3Ds-2A-EYFP and CNO; type: in vivo; settings: for contraversive rotations (FIG. 7A): AAV8R12-G88P7-rM3Ds-2A-EYFP, n=8; for rotation behavior (FIG. 7C): control vector AAV8R12-G88P7-EYFP, n=5
T1 construct: rM3Ds; 2A-EYFP (C); host or cells: AAV8R12-transduced striatal D1-MSNs of mice and cynomolgus macaques (in vivo and acute slices)
T1 sequence (P08483 other isoform, or with tags, fused parts or gaps with the stated changes): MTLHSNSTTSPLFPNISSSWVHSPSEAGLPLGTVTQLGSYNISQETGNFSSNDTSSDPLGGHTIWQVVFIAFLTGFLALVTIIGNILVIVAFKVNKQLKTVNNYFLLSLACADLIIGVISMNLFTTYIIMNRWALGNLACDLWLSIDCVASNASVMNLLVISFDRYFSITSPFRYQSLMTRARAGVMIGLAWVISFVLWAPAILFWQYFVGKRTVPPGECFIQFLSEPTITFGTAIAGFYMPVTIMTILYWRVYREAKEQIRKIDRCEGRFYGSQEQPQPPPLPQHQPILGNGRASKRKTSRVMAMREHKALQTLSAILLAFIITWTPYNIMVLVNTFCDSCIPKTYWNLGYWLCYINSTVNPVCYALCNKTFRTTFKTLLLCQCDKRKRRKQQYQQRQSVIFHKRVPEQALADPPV
Procedure: Mice were anesthetized with sodium pentobarbital (Nembutal; 80 mg/kg, i.p.), and then placed into a stereotaxic device (KOPF). Eye cream was applied on both corneas to avoid dehydration. The skull above the targeted areas was thinned with a dental drill and carefully removed. Injections were conducted with a 10 μL syringe connected to a 33-Gauge needle (Neuros; Hamilton), using a microsyringe pump (Legato 130, KD Scientific). A total volume of 200 nL virus was injected into the SNr at a speed of 20 nL/min. The coordinates for the SNr were 3.4 mm posterior, 1.3 mm lateral, 4.8 mm ventral to the bregma.
Mice that were used in the behavioral experiments were then implanted with guide cannulas (KOPF) unilaterally aiming at the dorsomedial striatum (0.5 mm anterior, 1.5 mm lateral, 3.5 mm ventral to the bregma). The cannulas were fixed to the skull with dental cement. Stainless steel obturators were inserted into the guide cannulas and were replaced every other day to maintain the patency until infusions were made. Mice were allowed to recover from the surgery for at least 3 weeks before further studies.
Mice were individually handled for 10-20 seconds per day for at least 5 days to habituate them to the experimenter. The open field test was conducted in a test apparatus (50 cm×50 cm×50 cm) with an HD digital camera (Sony) positioned above the arena. On day one, mice were habituated to the apparatus for 10 minutes. On day 2, mice were administrated saline (0.1 mL i.p. or 200 nL intracranially [i.e.] through the guide cannulas). On day 3, mice were administrated with Clozapine-N-oxide (CNO, Hello Bio, HB1807; 0.3 mg/kg i.p. or 200 nL at 100 μM i.e.). All behavioral tests were conducted 30 minutes after injection. During the test, mice were allowed to freely explore the apparatus for 10 minutes. The behavioral data were analyzed with ANY-maze software (Stoelting Co.).

[2] = Locomotion test in naive macaques without viral injection; type: in vivo; settings: naive macaques, n=3, not significant
[3] = biological target: hM3Dq (Homo sapiens, UniProt P20309, A239G/Y149C); assay: In vivo electrophysiological recording in caudate, hM3Dq macaques, CNO infusion into dorsomedial caudate; parameters: host or cells: AAV8R12-transduced neurons (striatal D1-MSNs, some SNr neurons) of mice and macaques
Sequence of hM3Dq (P20309 whole entry Y149C/A239G, the tested form may be a part): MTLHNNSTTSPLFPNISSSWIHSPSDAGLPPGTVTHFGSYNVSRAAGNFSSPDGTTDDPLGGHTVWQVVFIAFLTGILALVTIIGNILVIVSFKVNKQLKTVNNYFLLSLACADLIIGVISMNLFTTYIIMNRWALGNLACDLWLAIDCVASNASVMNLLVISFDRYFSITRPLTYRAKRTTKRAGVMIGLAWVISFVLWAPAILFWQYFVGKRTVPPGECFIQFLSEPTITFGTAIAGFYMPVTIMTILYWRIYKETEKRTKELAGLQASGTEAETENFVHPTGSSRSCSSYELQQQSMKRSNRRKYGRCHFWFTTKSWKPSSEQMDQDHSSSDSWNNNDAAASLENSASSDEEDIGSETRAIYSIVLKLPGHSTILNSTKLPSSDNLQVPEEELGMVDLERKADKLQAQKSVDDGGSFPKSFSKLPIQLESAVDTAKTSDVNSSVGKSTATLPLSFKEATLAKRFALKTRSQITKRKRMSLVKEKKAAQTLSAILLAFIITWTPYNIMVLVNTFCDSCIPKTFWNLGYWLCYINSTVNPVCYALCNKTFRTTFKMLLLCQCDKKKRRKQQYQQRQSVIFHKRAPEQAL
Procedure: Electrophysiological recording was performed through a recording chamber while the monkey was anesthetized. Neural responses were recorded by a 16-channel linear probe (Plexon Inc, Uprobe) driven by a mechanical microdrive (Alpha Omega, FlexMT). Signals were passed through a head stage (Plexon Inc, HST/16V-G20 LN) and then split and filtered between 300 Hz and 5 kHz to identify spiking activity with an amplifier system (Plexon Inc, OmniPlex). Detected spikes were then sorted by commercially available software (Plexon Inc, Offline Sorter) for further analysis. To quantify the effect of CNO/DCZ injection, neural activity was recorded for 60 minutes following CNO/DCZ injection. The response time-course for each channel was obtained by counting the spikes within every 10-minute window and then normalizing to the maximal.
To determine the effect of CNO/DCZ injection on the direction of signal change, we performed Pearson correlation between neural responses and time using the ‘corr’ function in Matlab, which generates the correlation coefficient ‘r’ and significant level ‘p’. A neuron was considered to have “Increased” activity when r>0 and p<0.05; and considered to have “Decreased” activity when r<0 and p<0.05. Otherwise, neurons were considered to be “Unchanged” in their neural activities. The responses of all increased neurons were then averaged after being normalized by the maximal response (Crowe et al., 2014; Dai and Wang, 2018; Hirokawa et al., 2019) following CNO/DCZ injection, and then plotted as a function of time to generate the normalized population response.

For `C[N+]1([O-])CCN(C2=Nc3cc(Cl)ccc3Nc3ccccc32)CC1` [CNO, clozapine N-oxide], the “rotations 12 months after viral infection” value ([1]; CNO i.p., 12 months after nigral AAV8R12-G88P7-rM3Ds-2A-EYFP) was “consistently elevated contraversive rotations”, the “contraversive rotations (FIG. 7A)” value ([1]; CNO i.p., saline 45.95±4.972) was 80.05±5.168 and the “rotation behavior (FIG. 7C)” value ([1]; CNO i.p., saline 48.68±7.203) was 46.88±7.497. The “contraversive rotations (FIG. 7A)” value ([1]; CNO intracranial, saline 58.31±4.742) was 80.77±4.187, the “rotation behavior (FIG. 7C)” value ([1]; CNO intracranial, saline 41.11±12.73) was 34.55±7.536 and the “c-Fos+ cells in the SNr” value ([1]; CNO intraperitoneal, rM3Ds) was “didn't increase the number of c-Fos+ cells in the SNr”. For the same molecule, the “contraversive and ipsiversive rotation (FIG. 11C)” value ([2]; saline 0.767±0.4296) was 0.8384±0.4152, the “speed of contraversive rotations (FIG. 11G)” value ([2]; saline 39.07±5.889) was 39.63±7.092 and the “speed of ipsiversive rotations (FIG. 11H)” value ([2]; saline 41.49±3.96) was 42.79±4.705. For the same molecule, the “total distance (FIG. 11F)” value ([2]; saline 53.12±15.3) was 59.48±18.65, the “time spending in the higher portion of the observing cages (FIG. 11D)” value ([2]; saline 55.73±2.64) was 60.43±4.542 and the “immobile time (FIG. 11E)” value ([2]; saline 149.9±21.61) was 149.8±22.65. For the same molecule, the “caudate cells activated (FIG. 12L)” value ([3]; 34 total cells, saline 18.8%) was 67.6%, the “caudate cells inactivated (FIG. 12L)” value ([3]; 34 total cells, saline 40.6%) was 2.9% and the “caudate cells unchanged (FIG. 12L)” value ([3]; 34 total cells, saline 40.6%) was 29.4%. The “caudate cells activated (FIG. 12C)” value ([3]; monkey CM045, 34 cells) was 70.6%, the “caudate cells inactivated (FIG. 12C)” value ([3]; monkey CM045, 34 cells) was 8.8% and the “caudate cells unchanged (FIG. 12C)” value ([3]; monkey CM045, 34 cells) was 20.6%.

Reference: patent publication US20250381307A1, “RETRO-AAV AND USE IN TREATING NEURODEGENERATIVE DISEASES” (priority 2023, published 2025)
